Source: PMC4980153 (Biochemical pharmacology, 2016)
Several values for one entry are separate records, joined by “and”; a condition that tells them apart may be missing. Equal values may be shown once. Where a name gives a salt, the structure may show the parent alone. Read-outs that look alike come from different tables or passages of the source.

Experiments:
[1] = biological target: (e1-BB2) BB3* loss-of-affinity chimera (Homo sapiens, UniProt P32247, E111D/G112R/H107K/H294R/T106S); experiment: 125I-peptide #1 competition binding, CHOP cells; design: species or system mouse; conditions: EC1 of BB3* replaced by EC1 of BB2, vs BB3*
(e1-BB2) BB3* loss-of-affinity chimera, sequence (P32247 whole entry T106S/H107K/E111D/G112R/H294R): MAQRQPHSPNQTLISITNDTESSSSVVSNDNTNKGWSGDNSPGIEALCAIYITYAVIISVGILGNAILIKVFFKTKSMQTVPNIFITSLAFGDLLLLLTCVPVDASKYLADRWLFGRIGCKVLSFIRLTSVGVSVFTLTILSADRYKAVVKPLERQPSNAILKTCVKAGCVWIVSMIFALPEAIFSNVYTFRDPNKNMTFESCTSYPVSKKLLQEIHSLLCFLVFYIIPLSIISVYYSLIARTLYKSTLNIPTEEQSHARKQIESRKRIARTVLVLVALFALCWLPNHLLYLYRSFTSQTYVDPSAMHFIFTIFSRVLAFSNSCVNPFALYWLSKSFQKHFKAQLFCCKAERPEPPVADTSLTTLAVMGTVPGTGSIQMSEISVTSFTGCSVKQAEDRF

[2] = biological target: (e2-BB2) BB3* loss-of-affinity chimera (Homo sapiens, UniProt P32247, D193V/E201I/E215K/H294R/K196T/K210N/K211E/L213H/L219M/L220A/M198Q/N187D/N195D/P194K/Q214P/R192H/S205P/T190P/T204A/V188L/V208H/Y189H); experiment: 125I-peptide #1 competition binding, CHOP cells; design: species or system mouse; conditions: EC2 of BB3* replaced by EC2 of BB2, vs BB3*
(e2-BB2) BB3* loss-of-affinity chimera, sequence (P32247 1-399 with the stated changes): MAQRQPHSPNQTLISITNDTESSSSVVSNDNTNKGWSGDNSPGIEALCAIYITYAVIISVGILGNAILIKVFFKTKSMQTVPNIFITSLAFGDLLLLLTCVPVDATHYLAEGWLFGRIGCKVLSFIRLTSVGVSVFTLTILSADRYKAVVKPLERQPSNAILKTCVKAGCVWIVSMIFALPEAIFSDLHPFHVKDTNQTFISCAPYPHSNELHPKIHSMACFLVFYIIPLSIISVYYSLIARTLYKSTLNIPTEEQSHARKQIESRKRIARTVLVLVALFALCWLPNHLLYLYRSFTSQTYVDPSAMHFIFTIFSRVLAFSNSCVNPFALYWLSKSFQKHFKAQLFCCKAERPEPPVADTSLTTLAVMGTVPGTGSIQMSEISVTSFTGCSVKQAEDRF

[3] = tested on: (e1-BB3) BB2 gain-of-affinity chimera; experiment: 125I-peptide #1 competition binding, CHOP cells; design: species or system human, mouse; conditions: EC1 of BB2 replaced by EC1 of BB3, vs wild type BB2
[4] = biological target: [H107K] BB3* receptor (Homo sapiens, UniProt P32247, H107K/H294R); experiment: 125I-peptide #1 competition binding, CHOP cells
[H107K] BB3* receptor, sequence (P32247 whole entry H107K/H294R): as the sequence (P32247 whole entry T106S/H107K/E111D/G112R/H294R) above, with S106T, D111E, R112G counted along it

[5] = biological target: [H107K] wild type BB3 receptor (Homo sapiens, UniProt P32247, H107K); experiment: 125I-peptide #1 competition binding, CHOP cells
[H107K] wild type BB3 receptor, sequence (P32247 whole entry H107K): as the sequence (P32247 whole entry T106S/H107K/E111D/G112R/H294R) above, with S106T, D111E, R112G, R294H counted along it

[6] = biological target: [H107D] BB3* receptor (Homo sapiens, UniProt P32247, H107D/H294R); experiment: 125I-peptide #1 competition binding, CHOP cells
[H107D] BB3* receptor, sequence (P32247 whole entry H107D/H294R): as the sequence (P32247 whole entry T106S/H107K/E111D/G112R/H294R) above, with S106T, K107D, D111E, R112G counted along it

[7] = biological target: [H107F] wild type BB3 receptor (Homo sapiens, UniProt P32247, H107F); experiment: 125I-peptide #1 competition binding, CHOP cells
[H107F] wild type BB3 receptor, sequence (P32247 whole entry H107F): as the sequence (P32247 whole entry T106S/H107K/E111D/G112R/H294R) above, with S106T, K107F, D111E, R112G, R294H counted along it

[8] = biological target: [H107Y] wild type BB3 receptor (Homo sapiens, UniProt P32247, H107Y); experiment: 125I-peptide #1 competition binding, CHOP cells
[H107Y] wild type BB3 receptor, sequence (P32247 whole entry H107Y): as the sequence (P32247 whole entry T106S/H107K/E111D/G112R/H294R) above, with S106T, K107Y, D111E, R112G, R294H counted along it

[9] = biological target: [H107K, G112R] BB3* receptor (Homo sapiens, UniProt P32247, G112R/H107K/H294R); experiment: 125I-peptide #1 competition binding, CHOP cells
[H107K, G112R] BB3* receptor, sequence (P32247 whole entry H107K/G112R/H294R): as the sequence (P32247 whole entry T106S/H107K/E111D/G112R/H294R) above, with S106T, D111E counted along it

[10] = biological target: [H107K, G112R] wild type BB3 receptor (Homo sapiens, UniProt P32247, G112R/H107K); experiment: 125I-peptide #1 competition binding, CHOP cells
[H107K, G112R] wild type BB3 receptor, sequence (P32247 whole entry H107K/G112R): as the sequence (P32247 whole entry T106S/H107K/E111D/G112R/H294R) above, with S106T, D111E, R294H counted along it

[11] = biological target: [L123I] BB3* receptor (Homo sapiens, UniProt P32247, H294R/L123I); experiment: 125I-peptide #1 competition binding, CHOP cells
[L123I] BB3* receptor, sequence (P32247 whole entry L123I/H294R): as the sequence (P32247 whole entry T106S/H107K/E111D/G112R/H294R) above, with S106T, K107H, D111E, R112G, L123I counted along it

[12] = biological target: [V101A] wild type BB3 receptor (Homo sapiens, UniProt P32247, V101A); experiment: 125I-peptide #1 competition binding, CHOP cells
[V101A] wild type BB3 receptor, sequence (P32247 whole entry V101A): as the sequence (P32247 whole entry T106S/H107K/E111D/G112R/H294R) above, with V101A, S106T, K107H, D111E, R112G, R294H counted along it

[13] = biological target: [S124P] BB3* receptor (Homo sapiens, UniProt P32247, H294R/S124P); experiment: 125I-peptide #1 competition binding, CHOP cells
[S124P] BB3* receptor, sequence (P32247 whole entry S124P/H294R): as the sequence (P32247 whole entry T106S/H107K/E111D/G112R/H294R) above, with S106T, K107H, D111E, R112G, S124P counted along it

[14] = biological target: [R127K] BB3* receptor (Homo sapiens, UniProt P32247, H294R/R127K); experiment: 125I-peptide #1 competition binding, CHOP cells
[R127K] BB3* receptor, sequence (P32247 whole entry R127K/H294R): as the sequence (P32247 whole entry T106S/H107K/E111D/G112R/H294R) above, with S106T, K107H, D111E, R112G, R127K counted along it

[15] = biological target: [R127K] wild type BB3 receptor (Homo sapiens, UniProt P32247, R127K); experiment: 125I-peptide #1 competition binding, CHOP cells
[R127K] wild type BB3 receptor, sequence (P32247 whole entry R127K): as the sequence (P32247 whole entry T106S/H107K/E111D/G112R/H294R) above, with S106T, K107H, D111E, R112G, R127K, R294H counted along it

[16] = biological target: [R127N] BB3* receptor (Homo sapiens, UniProt P32247, H294R/R127N); experiment: 125I-peptide #1 competition binding, CHOP cells
[R127N] BB3* receptor, sequence (P32247 whole entry R127N/H294R): as the sequence (P32247 whole entry T106S/H107K/E111D/G112R/H294R) above, with S106T, K107H, D111E, R112G, R127N counted along it

[17] = biological target: [R127N] wild type BB3 receptor (Homo sapiens, UniProt P32247, R127N); experiment: 125I-peptide #1 competition binding, CHOP cells
[R127N] wild type BB3 receptor, sequence (P32247 whole entry R127N): as the sequence (P32247 whole entry T106S/H107K/E111D/G112R/H294R) above, with S106T, K107H, D111E, R112G, R127N, R294H counted along it

[18] = biological target: [R127H] BB3* receptor (Homo sapiens, UniProt P32247, H294R/R127H); experiment: 125I-peptide #1 competition binding, CHOP cells
[R127H] BB3* receptor, sequence (P32247 whole entry R127H/H294R): as the sequence (P32247 whole entry T106S/H107K/E111D/G112R/H294R) above, with S106T, K107H, D111E, R112G, R127H counted along it

[19] = biological target: [R127H] wild type BB3 receptor (Homo sapiens, UniProt P32247, R127H); experiment: 125I-peptide #1 competition binding, CHOP cells
[R127H] wild type BB3 receptor, sequence (P32247 whole entry R127H): as the sequence (P32247 whole entry T106S/H107K/E111D/G112R/H294R) above, with S106T, K107H, D111E, R112G, R127H, R294H counted along it

[20] = biological target: BB3 and BB3* receptors and their mutants (Homo sapiens, UniProt P32247, H294R/R127H); conditions: [R127H], background not stated (discussion)
BB3 and BB3* receptors and their mutants (Homo sapiens, UniProt P32247, H294R/R127H), sequence (P32247 whole entry R127H/H294R): as the sequence (P32247 whole entry T106S/H107K/E111D/G112R/H294R) above, with S106T, K107H, D111E, R112G, R127H counted along it

[21] = biological target: BB3 and BB3* receptors and their mutants (Homo sapiens, UniProt P32247, H294R/R127K); conditions: [R127K], background not stated (discussion)
BB3 and BB3* receptors and their mutants (Homo sapiens, UniProt P32247, H294R/R127K), sequence (P32247 whole entry R127K/H294R): as the sequence (P32247 whole entry T106S/H107K/E111D/G112R/H294R) above, with S106T, K107H, D111E, R112G, R127K counted along it

[22] = tested on: BB3 and BB3* receptors and their mutants

In the case of `CC(C)C[C@H](NC(=O)C[C@H](O)[C@H](CC1CCCCC1)NC(=O)[C@H](Cc1c[nH]cn1)NC(=O)[C@H](Cc1ccccc1)NC(=O)OC(C)(C)C)C(=O)NCc1cccc([N+](C)(C)C)c1` [Bantag-1, Boc-Phe-His-4-amino-5-cyclohexyl-2,4,5-trideoxypentonyl-Leu- (3-dimethylamino) benzylamide N-methylammonium trifluoroacetate], the decrease in affinity [1] is reported as 377 fold and > 377 fold and > 400 fold, the decrease in affinity [2] is reported as 23 fold and the increase in affinity [3] is reported as 5 fold. The decrease in affinity [4] was 54 fold, the decrease in affinity [5] was 35 fold and the decrease in affinity [6] was greater than 192 fold. It also gave a decrease in affinity [7] of 4 fold, a decrease in affinity [8] of 13 fold and a decrease in affinity [9] of 250 fold. For the same compound, the decrease in affinity [10] was 68 fold, the decrease in affinity [11] was 4 fold and the decrease in affinity [12] was 179 fold. For the same compound, the decrease in affinity [13] was 54 fold, the decrease in affinity [14] was 45 fold and the decrease in affinity [15] was greater than 526 fold. It also gave a decrease in affinity [16] of 78 fold, a decrease in affinity [17] of 12 fold and a decrease in affinity [18] of 192 fold. For the same compound, the decrease in affinity [19] was 175 fold, the decrease in affinity [20] was greater than 192 fold and the decrease in affinity [21] was 45 fold. The decrease in affinity ([22]; E111D or G112R BB3 receptor mutants) was 1 to 2.5 fold, the loss in affinity ([22]; [G112R] in wild type and BB3* receptor) was 2 fold and 2–3 fold and the decrease in affinity ([22]; [H107F] and [H107Y] in BB3*) was 7–16 fold. The decrease in affinity ([22]; [H107K, E111D, G112R] in wild type and BB3*) was 500 fold and > 500 fold, the decrease in affinity ([22]; [H107K], BB3 and BB3* not separated) was 60 fold and 35–54 fold and 50 fold and the decrease in affinity ([22]; [H107N] in either BB3 or BB3*) was greater than 58 fold. The decrease in affinity ([22]; [H107W], background not separated) was greater than 190 times, the decrease in affinity ([22]; [H107Y] and [H107F] in either BB3 or BB3*) was 4–16 fold and 5–17 fold and the decrease in affinity ([22]; [L123I, R127Q] in wild type and BB3*) was > 2,000 fold. For the same compound, the decrease in affinity ([22]; [R127E] in wild type and BB3*) was 188 fold and > 200 fold, the decrease in affinity ([22]; [R127Q], [L123I] and [S124P] in wild type BB3) was 233–536 fold and the decrease in affinity ([22]; [R127Q], background not separated) was 400 fold and > 390 fold and > 400 fold. The Ki ([22]; read-out: Ki (range given), [G112R] in wild type and BB3* receptor) was 11.6 to 16 nM and the decrease in affinity ([22]; single EC1 amino acid substitutions alone) was 1.4–54 fold.
